Starred links: 1 amine or outer side, 2 acyl side, 3 side chain; linkers in the order of their positions; H or OH if unused. Positions of bridges follow the written chain, without caps; N, C: chain ends. Non-standard residues stand in square brackets, D forms with d. Residues, ends and D or L forms follow the SMILES beside them. *: point of attachment. hPhe(3-Cl-4-CF3) = N[C@@H](CCc1ccc(C(F)(F)F)c(Cl)c1)C(=O)O; NMePhe(4-CF3) = CN[C@@H](Cc1ccc(C(F)(F)F)cc1)C(=O)O; NMePhe(3-Cl) = CN[C@@H](Cc1cccc(Cl)c1)C(=O)O; NMePhe(4-Br) = CN[C@@H](Cc1ccc(Br)cc1)C(=O)O; NMePhe(3-Me) = CN[C@@H](Cc1cccc(C)c1)C(=O)O; NMePhe(2-Cl) = CN[C@@H](Cc1ccccc1Cl)C(=O)O; NMedβ3hAla = C[C@H](CC(=O)[*:2])N(C)[*:1]; NMeY = CN[C@@H](Cc1ccc(O)cc1)C(=O)O; NMeD = CN[C@@H](CC(=O)O)C(=O)O; NMeL = CN[C@@H](CC(C)C)C(=O)O; NMeV = CN[C@H](C(=O)O)C(C)C; d(β3hA) = C[C@@H](N)CC(=O)O; Piperidide = C1CCN(*)CC1; Ac5c = NC1(C(=O)O)CCCC1; CF3 = FC(F)(F)*; Sar = CNCC(=O)O
Legend:
[1] = tested on: Human pancreatic cancer cell line AsPC-1; test: Measurement of AsPC-1 cell growth inhibition (AsPC-1 CGI); assay type: cell-based; settings: 96 h
Outline: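 AsPC-1 cells in 15% FBS RPMI-1640 were exposed to test compound for 96 hours at 37° C, with CellTiter-Glo as endpoint.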

[2] = biological target: T1, Kras and SOS1 (biotin-tagged human Kras loaded with GDP, His-tagged human SOS1) (Homo sapiens, UniProt P01116, G12D); test: Protein-protein interaction inhibition between Kras and SOS1 (KrasGl2D-SOS PPI) using AlphaScreen; assay type: binding; settings: AlphaScreen; biotin-tagged human Kras loaded with GDP, His-tagged human SOS1; read-out: KRAS G12D-SOS PPI IC50
T1 construct: made in house; host or cells: E. coli (stated for Kras only)
T1 sequence (P01116 1-188 isoform P01116-2 G12D): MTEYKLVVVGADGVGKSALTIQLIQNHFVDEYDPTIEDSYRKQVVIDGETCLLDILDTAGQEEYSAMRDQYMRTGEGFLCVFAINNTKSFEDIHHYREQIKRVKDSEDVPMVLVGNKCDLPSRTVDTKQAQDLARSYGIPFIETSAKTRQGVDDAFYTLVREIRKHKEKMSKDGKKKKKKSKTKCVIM
Outline: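 Kras was produced in E. coli, purified, then loaded with GDP. It was paired via streptavidin acceptor beads with His-SOS1 held on nickel donor beads, and proximity signal at 520-620 nm was read after 680 nm illumination.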

SMILES: CC[C@H](C)[C@@H]1NC(=O)[C@H](CC(C)C)N(C)C(=O)C[C@@H](C(=O)N2CCCCC2)N(C)C(=O)[C@H](C(C)C)N(C)C(=O)C2(CCCC2)NC(=O)[C@@H]2CCCN2C(=O)[C@H](CCc2ccc(C(F)(F)F)c(Cl)c2)NC(=O)CN(C)C(=O)[C@H](Cc2cccc(Cl)c2)N(C)C(=O)CN(C)C(=O)CN(C)C1=O [Compound 1611] ([NMeL]I[Sar][Sar][NMePhe(3-Cl)][Sar][hPhe(3-Cl-4-CF3)]P[Ac5c][NMeV][NMeD]-Piperidide; lactam N-11)
- IC50 [1]: 100 to 500 nM
- IC50 [2]: 3.2 nM

SMILES: CC[C@H](C)[C@@H]1NC(=O)[C@H](CC(C)C)N(C)C(=O)C[C@@H](C)N(C)C(=O)[C@H](C(C)C)N(C)C(=O)C2(CCCC2)NC(=O)[C@@H]2CCCN2C(=O)[C@H](CCc2ccc(C(F)(F)F)c(Cl)c2)NC(=O)CN(C)C(=O)[C@H](Cc2ccccc2Cl)N(C)C(=O)CN(C)C(=O)CN(C)C1=O [Compound 1615] (cyclo([Ac5c][NMeV][NMedβ3hAla][NMeL]I[Sar][Sar][NMePhe(2-Cl)][Sar][hPhe(3-Cl-4-CF3)]P))
- IC50 [1]: 100 to 500 nM
- IC50 [2]: 40 nM

SMILES: CC[C@H](C)[C@@H]1NC(=O)[C@H](CC(C)C)N(C)C(=O)C[C@@H](C)N(C)C(=O)[C@H](C(C)C)N(C)C(=O)C2(CCCC2)NC(=O)[C@@H]2CCCN2C(=O)[C@H](CCc2ccc(C(F)(F)F)c(Cl)c2)NC(=O)CN(C)C(=O)[C@H](Cc2ccc(C(F)(F)F)cc2)N(C)C(=O)CN(C)C(=O)CN(C)C1=O [Compound 1617] (cyclo([Ac5c][NMeV][NMedβ3hAla][NMeL]I[Sar][Sar][NMePhe(4-CF3)][Sar][hPhe(3-Cl-4-CF3)]P))
- IC50 [1]: 50 to 100 nM
- IC50 [2]: 2.7 nM

SMILES: CC[C@H](C)[C@@H]1NC(=O)[C@H](CC(C)C)N(C)C(=O)C[C@@H](C)NC(=O)[C@H](C(C)C)N(C)C(=O)C2(CCCC2)NC(=O)[C@@H]2CCCN2C(=O)[C@H](CCc2ccc(C(F)(F)F)c(Cl)c2)NC(=O)CN(C)C(=O)[C@H](Cc2ccc(C(F)(F)F)cc2)N(C)C(=O)CN(C)C(=O)CN(C)C1=O [Compound 1620] (cyclo([Ac5c][NMeV][d(β3hA)][NMeL]I[Sar][Sar][NMePhe(4-CF3)][Sar][hPhe(3-Cl-4-CF3)]P))
- IC50 [1]: 50 to 100 nM
- IC50 [2]: 5.4 nM

SMILES: CC[C@H](C)[C@@H]1NC(=O)[C@H](CC(C)C)N(C)C(=O)C[C@@H](C)N(C)C(=O)[C@H](C(C)C)N(C)C(=O)C2(CCCC2)NC(=O)[C@@H]2CCCN2C(=O)[C@H](CCc2ccc(C(F)(F)F)c(Cl)c2)NC(=O)CN(C)C(=O)[C@H](Cc2cccc(Cl)c2)N(C)C(=O)CN(C)C(=O)CN(C)C1=O [Compound 1621] (cyclo([Ac5c][NMeV][NMedβ3hAla][NMeL]I[Sar][Sar][NMePhe(3-Cl)][Sar][hPhe(3-Cl-4-CF3)]P))
- IC50 [1]: 50 to 100 nM
- IC50 [2]: 7.2 nM

SMILES: CC[C@H](C)[C@@H]1NC(=O)[C@H](CC(C)C)N(C)C(=O)C[C@@H](C)NC(=O)[C@H](C(C)C)N(C)C(=O)C2(CCCC2)NC(=O)[C@@H]2CCCN2C(=O)[C@H](CCc2ccc(C(F)(F)F)c(Cl)c2)NC(=O)CN(C)C(=O)[C@H](Cc2ccc(Br)cc2)N(C)C(=O)CN(C)C(=O)CN(C)C1=O [Compound 1625] (cyclo([Ac5c][NMeV][d(β3hA)][NMeL]I[Sar][Sar][NMePhe(4-Br)][Sar][hPhe(3-Cl-4-CF3)]P))
- IC50 [1]: 100 to 500 nM
- IC50 [2]: 7.2 nM

SMILES: CC[C@H](C)[C@@H]1NC(=O)[C@H](CC(C)C)N(C)C(=O)C[C@@H](C(=O)N2CCCCC2)N(C)C(=O)[C@H](C(C)C)N(C)C(=O)C2(CCCC2)NC(=O)[C@@H]2CCCN2C(=O)[C@H](CCc2ccc(C(F)(F)F)c(Cl)c2)NC(=O)CN(C)C(=O)[C@H](Cc2cccc(C)c2)N(C)C(=O)CN(C)C(=O)CN(C)C1=O [Compound 1626] ([NMeL]I[Sar][Sar][NMePhe(3-Me)][Sar][hPhe(3-Cl-4-CF3)]P[Ac5c][NMeV][NMeD]-Piperidide; lactam N-11)
- IC50 [1]: 100 to 500 nM
- IC50 [2]: 4.4 nM

SMILES: CC[C@H](C)[C@@H]1NC(=O)[C@H](CC(C)C)N(C)C(=O)C[C@@H](C(=O)N2CCCCC2)N(C)C(=O)[C@H](C(C)C)N(C)C(=O)C2(CCCC2)NC(=O)[C@@H]2CCCN2C(=O)[C@H](CCc2ccc(C(F)(F)F)c(Cl)c2)NC(=O)CN(C)C(=O)[C@H](Cc2ccc(C(F)(F)F)cc2)N(C)C(=O)CN(C)C(=O)CN(C)C1=O [Compound 1629] ([NMeL]I[Sar][Sar][NMePhe(4-CF3)][Sar][hPhe(3-Cl-4-CF3)]P[Ac5c][NMeV][NMeD]-Piperidide; lactam N-11)
- IC50 [1]: 50 to 100 nM
- IC50 [2]: 2.5 nM

SMILES: CC[C@H](C)[C@@H]1NC(=O)[C@H](CC(C)C)N(C)C(=O)C[C@@H](C(=O)N2CCCCC2)N(C)C(=O)[C@H](C(C)C)N(C)C(=O)C2(CCCC2)NC(=O)[C@@H]2CCCN2C(=O)[C@H](CCc2ccc(C(F)(F)F)c(Cl)c2)NC(=O)CN(C)C(=O)[C@H](Cc2ccc(OC(F)(F)F)cc2)N(C)C(=O)CN(C)C(=O)CN(C)C1=O [Compound 1630] ([NMeL]I[Sar][Sar][NMeY](CF3)[Sar][hPhe(3-Cl-4-CF3)]P[Ac5c][NMeV][NMeD]-Piperidide; lactam N-11)
- IC50 [1]: 100 to 500 nM
- IC50 [2]: 6.2 nM
